# Target: T1, Axl (Homo sapiens, UniProt P30530)
# T1 construct: endogenous in cells; host or cells: HeLa cells
# T1 sequence (P30530 26-894): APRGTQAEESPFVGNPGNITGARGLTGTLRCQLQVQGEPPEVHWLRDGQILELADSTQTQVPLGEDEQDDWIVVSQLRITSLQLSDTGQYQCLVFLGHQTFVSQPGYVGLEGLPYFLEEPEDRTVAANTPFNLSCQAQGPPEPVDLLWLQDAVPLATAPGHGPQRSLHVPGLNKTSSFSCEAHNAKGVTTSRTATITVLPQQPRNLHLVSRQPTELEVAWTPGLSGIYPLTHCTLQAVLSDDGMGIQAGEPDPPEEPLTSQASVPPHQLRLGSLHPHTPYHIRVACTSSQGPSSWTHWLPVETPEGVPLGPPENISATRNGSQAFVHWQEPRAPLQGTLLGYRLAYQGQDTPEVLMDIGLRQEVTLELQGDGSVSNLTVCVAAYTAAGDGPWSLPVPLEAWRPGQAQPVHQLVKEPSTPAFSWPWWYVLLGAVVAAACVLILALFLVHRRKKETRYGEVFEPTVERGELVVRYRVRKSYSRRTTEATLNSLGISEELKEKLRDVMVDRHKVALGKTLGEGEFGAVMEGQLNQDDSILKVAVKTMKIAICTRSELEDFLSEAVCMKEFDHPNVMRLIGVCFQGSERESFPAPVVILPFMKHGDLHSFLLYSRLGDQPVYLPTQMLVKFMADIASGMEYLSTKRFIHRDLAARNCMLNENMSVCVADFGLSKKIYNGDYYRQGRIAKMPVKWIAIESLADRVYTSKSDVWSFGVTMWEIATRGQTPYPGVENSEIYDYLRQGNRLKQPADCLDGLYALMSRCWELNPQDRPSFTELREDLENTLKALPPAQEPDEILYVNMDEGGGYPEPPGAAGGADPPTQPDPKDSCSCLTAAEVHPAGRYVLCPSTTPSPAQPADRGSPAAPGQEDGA
# Experiment: Phospho-Akt in-cell Western assay (inhibition of Axl activity)
# Type: cell-based
# In short: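 HeLa cells on poly-L-lysine, starved 24 h in 0.5% FCS DMEM with Axl/Fc 500 ng/mL, pre-treated with compound 1 h at 37° C. Axl stimulated 5 min by anti-Axl/anti-mouse antibody cross-linking. Fixed cells probed with anti-phospho-Akt and HRP secondary, chemiluminescence read.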
# [1] = Table 5, Hela cells, Axl antibody cross-linking stimulation, phospho-Akt chemiluminescence
# [2] = inhibition of Axl activity, phospho-Akt in-cell Western assay, Table 1
# [3] = Table 3, Hela cells, Axl antibody cross-linking stimulation, phospho-Akt chemiluminescence
# [4] = inhibition of Axl activity, Table 1
smiles,measurement,setting,value
"CS(=O)(=O)N1CCC(Nc2nc(N)n(C(=O)c3c(F)cccc3F)n2)CC1 [compound 392, 5-amino-1-(2,6-difluorophenyl)carbonyl-3-(1-methylsulfonylpiperidin-4-yl)amino-1H-1,2,4-triazole]",IC50,[1],> 20 µM
"CN1CCN(c2ccc(C(=O)n3nc(Nc4ccc(OCCN5CCCC5)cc4)nc3N)cc2)CC1 [compound 383, 5-amino-1-(4-(4-methylpiperazin-1-yl)phenyl)carbonyl-3-[4-[2-(pyrrolidin-1-yl)ethoxy]phenylamino]-1H-1,2,4-triazole]",IC50,[2],< 1 µM
"CC(C)(C)Oc1ccc(C(=O)n2nc(Nc3ccc(OCCN4CCCC4=O)cc3)nc2N)cc1 [compound 342, 5-amino-1-(4-(tert-butoxy)phenyl)carbonyl-3-[4-[2-(pyrrolidin-2-on-1-yl)ethoxy]phenylamino]-1H-1,2,4-triazole]",IC50,[2],< 1 µM
"Nc1nc(Nc2ccc(OCCN3CCCC3)cc2)nn1C(=O)c1cc2ccccc2s1 [compound 367, 5-amino-1-(benzo[b]thiophen-2-yl)carbonyl-3-[4-[2-(pyrrolidin-1-yl)ethoxy]phenylamino]-1H-1,2,4-triazole]",IC50,[3],< 1 µM
"Cc1cccc(C(=O)n2nc(Nc3ccc4c(c3)NC(=O)C(F)(F)O4)nc2N)c1 [compound 64, 5-amino-3-(2,2-difluoro-2H-benzo[b][1,4]oxazin-3(4H)-on-6-yl)amino-1-(3-(methyl)phenyl)carbonyl-1H-1,2,4-triazole]",IC50,[1],> 20 µM
"CC(C)(C)Oc1ccc(C(=O)n2nc(NC3C4C=CC(C4)C3C(N)=O)nc2N)cc1 (stereo not drawn) [compound 346, 5-amino-1-(4-(tert-butoxy)phenyl)carbonyl-3-[(5-(aminocarbonyl)bicyclo[2.2.1]hept-2-en-6-yl)amino]-1H-1,2,4-triazole]",IC50,[1],> 20 µM
"Nc1nc(Nc2ccc3c(c2)OCCO3)nn1C(=O)c1cccc(OCCN2CCOCC2)c1 [compound 150, 5-amino-3-(1,4-benzodioxan-6-yl)amino-1-[3-[2-(morpholin-4-yl)ethoxy]phenyl]carbonyl-1H-1,2,4-triazole]",IC50,[4],> 20 µM
"COC(=O)n1nc(N)nc1Nc1ccc2c(c1)OCCO2 [compound 93, 3-amino-5-(1,4-benzodioxan-6-yl)amino-1-methoxycarbonyl-1H-1,2,4-triazole]",IC50,"Table 8, Hela cells, Axl antibody cross-linking stimulation, phospho-Akt chemiluminescence",> 20 µM
"Nc1nc(Nc2ccc(OCCN3CCCC3)c(F)c2)nn1C(=O)c1ccc(N2CCOCC2)cc1 [compound 262, 5-amino-3-[4-[2-(pyrrolidin-1-yl)ethoxy]-3-fluorophenyl]amino-1-[4-(morpholin-4-yl)phenyl]carbonyl-1H-1,2,4-triazole]",IC50,[2],< 1 µM
"Cc1cccc(C(=O)n2nc(Nc3ccc4[nH]ccc4c3)nc2N)c1 [compound 252, 5-amino-3-(1H-indol-5-yl)amino-1-(3-methylphenyl)carbonyl-1H-1,2,4-triazole]",IC50,[1],1 to 10 µM
"CN(C)c1cccc(C(=O)n2nc(NC3C4C=CC(C4)C3C(N)=O)nc2N)c1 (stereo not drawn) [compound 352, 5-amino-1-(3-(dimethylamino)phenyl)carbonyl-3-[(5-(aminocarbonyl)bicyclo[2.2.1]hept-2-en-6-yl)amino]-1H-1,2,4-triazole]",IC50,[1],> 20 µM
"COc1cccc(C(=O)n2nc(Nc3ccc4c(c3)OCCO4)nc2N)c1 [compound 98, 5-amino-3-(1,4-benzodioxan-6-yl)amino-1-(3-(methoxy)phenyl)carbonyl-1H-1,2,4-triazole]",IC50,[4],1 to 10 µM
"Cc1cccc(NC(=O)n2nc(Nc3ccc(OCCN4CCCC4)cc3)nc2N)c1 [compound 31, 5-amino-N-(3-methylphenyl)-3-[4-[2-(pyrrolidin-1-yl)ethoxy]phenylamino]-1H-1,2,4-triazole-1-carboxamide]",IC50,"Table 7, Hela cells, Axl antibody cross-linking stimulation, phospho-Akt chemiluminescence",< 1 µM
"Nc1nc(Nc2ccc(OCCN3CCCC3)c(F)c2)nn1C(=O)c1ccccc1 [compound 308, 5-amino-1-(phenyl)carbonyl-3-[3-fluoro-4-[2-(pyrrolidin-1-yl)ethoxy]phenylamino]-1H-1,2,4-triazole]",IC50,[2],< 1 µM
"Nc1nc(Nc2ccc3c(c2)OCCO3)nn1C(=O)c1ccc(O)cc1 [compound 162, 5-amino-3-(1,4-benzodioxan-6-yl)amino-1-(4-(hydroxy)phenyl)carbonyl-1H-1,2,4-triazole]",IC50,[4],1 to 10 µM
"Nc1nc(Nc2ccc(OCCN3CCCC3=O)cc2)nn1C(=O)c1cccc(N2CCOCC2)c1 [compound 340, 5-amino-1-(3-(morpholin-4-yl)phenyl)carbonyl-3-[4-[2-(pyrrolidin-2-on-1-yl)ethoxy]phenylamino]-1H-1,2,4-triazole]",IC50,[2],1 to 10 µM
"Cc1ccc(C(=O)n2nc(Nc3ccc(OCCN4CCCC4)cc3)nc2N)cn1 [compound #28, 5-Amino-1-(6-(methyl)pyridin-3-yl)carbonyl-3-[4-[2-(pyrrolidin-1-yl)ethoxy]phenylamino]-1H-1,2,4-triazole]",IC50,[3],1 to 10 µM
"CC(C)Oc1ccc(C(=O)n2nc(Nc3ccc4c(c3)NC(=O)C(F)(F)O4)nc2N)cc1 [compound 63, 5-amino-3-(2,2-difluoro-2H-benzo[b][1,4]oxazin-3(4H)-on-6-yl)amino-1-(4-(iso-propoxy)phenyl)carbonyl-1H-1,2,4-triazole]",IC50,[1],> 20 µM
"Cc1cc(C(=O)n2nc(Nc3ccc4c(c3)OCCO4)nc2N)ccc1F [compound 242, 5-amino-3-(1,4-benzodioxan-6-yl)amino-1-[(4-fluoro-3-methyl)phenyl]carbonyl-1H-1,2,4-triazole]",IC50,[4],> 20 µM
"Cc1ccc(C(=O)n2nc(Nc3ccccc3C)nc2N)cc1 [compound 144, 5-amino-3-[2-(methyl)phenylamino]-1-(4-(methyl)phenyl)carbonyl-1H-1,2,4-triazole]",IC50,[4],> 20 µM
"Cc1cccc(C(=O)n2nc(Nc3ccc4oc(C(=O)NCCO)cc4c3)nc2N)c1 [compound 208, 5-amino-3-[2-[2-hydroxyethylaminocarbonyl]benzofuran-5-yl]amino-1-(3-methylphenyl)carbonyl-1H-1,2,4-triazole]",IC50,[1],1 to 10 µM
"CN(C)CCOc1ccc(Nc2nc(N)n(C(=O)c3ccc4c(c3)NC(=O)C(C)(C)O4)n2)cc1 [compound 86, 5-amino-3-[4-[2-(dimethylamino)ethoxy]phenylamino]-1-(2,2-dimethyl-2H-benzo[b][1,4]oxazin-3(4H)-on-6-yl)carbonyl-1H-1,2,4-triazole]",IC50,[3],< 1 µM
"CN(C)c1ccc(C(=O)n2nc(Nc3ccc(OCCN4CC[C@H](F)C4)cc3)nc2N)cc1 [compound 385, 5-amino-1-(4-(dimethylamino)phenyl)carbonyl-3-[4-[2-((S)-3-fluoropyrrolidin-1-yl)ethoxy]phenylamino]-1H-1,2,4-triazole]",IC50,[2],< 1 µM
"CC(=O)Oc1ccc(C(=O)n2nc(Nc3ccc4c(c3)OCCO4)nc2N)cc1 [compound 109, 1-(4-(Acetoxy)phenyl)carbonyl-5-amino-3-(1,4-benzodioxan-6-yl)amino-1H-1,2,4-triazole]",IC50,[4],1 to 10 µM
"Cc1ccc(C(=O)n2nc(Nc3ccc(N4CCCC4)cc3)nc2N)cc1 [compound 300, 5-amino-1-(4-(methyl)phenyl)carbonyl-3-[4-(pyrrolidin-1-yl)phenylamino]-1H-1,2,4-triazole]",IC50,[2],1 to 10 µM
"Nc1nc(Nc2ccc(OCCN3CCCC3)c(F)c2)n(C(=O)c2ccc(N3CCOCC3)cc2)n1 [compound 304, 3-amino-1-(4-(morpholin-4-yl)phenyl)carbonyl-5-[3-fluoro-4-[2-(pyrrolidin-1-yl)ethoxy]phenylamino]-1H-1,2,4-triazole]",IC50,"Table 2, Hela cells, Axl antibody cross-linking stimulation, phospho-Akt chemiluminescence",10 to 20 µM
"Cc1cccc(C(=O)n2nc(Nc3ccc4snc(C)c4c3)nc2N)c1 [compound 260, 5-amino-3-(3-methyl-1,2-benzisothiazol-5-yl)amino-1-(3-methylphenyl)carbonyl-1H-1,2,4-triazole]",IC50,[1],> 20 µM
"Cc1cccc(C(=O)n2nc(Nc3ccc4oc(C(=O)NCCOC5CCCCO5)cc4c3)nc2N)c1 (stereo not drawn) [compound 207, 5-amino-1-(3-methylphenyl)carbonyl-3-[2-[N-[2-(tetrahydropyran-2-yloxy)ethyl]amino]carbonylbenzofuran-5-yl]amino-1H-1,2,4-triazole]",IC50,[1],1 to 10 µM
"Nc1nc(Nc2ccc(OCCn3ccnc3)cc2)nn1C(=O)c1cc2ccccc2s1 [compound 379, 5-amino-1-(benzo[b]thiophen-2-yl)carbonyl-3-[4-[2-(imidazol-1-yl)ethoxy]phenylamino]-1H-1,2,4-triazole]",IC50,[3],< 1 µM
"COc1cccc(C(=O)n2nc(Nc3ccc(OCCN4CCCC4)cc3)nc2N)c1 [compound #14, 5-Amino-1-(3-methoxyphenyl)carbonyl-3-[4-[2-(pyrrolidin-1-yl)ethoxy]phenylamino]-1H-1,2,4-triazole]",IC50,[2],< 1 µM
